Laboratory results published in PMC6133092, “Synthesis of 2-alkylthio-N-(quinazolin-2-yl)benzenesulfonamide derivatives: anticancer activity, QSAR studies, and metabolic stability” (Monatshefte Fur Chemie, 2018).

How the values were obtained:
HCT-116 (colon cancer) = experiment: MTT cell viability assay, HCT-116; format: cell-based; settings: Homo sapiens, 72 h, mean ± SD
Method: (§1) All chemicals, if not stated otherwise, were obtained from Sigma-Aldrich (St. Louis, MO, USA). The MCF-7 and HeLa cell lines were purchased from Cell Lines Services (Eppelheim, Germany), the HCT-116 cell line was purchased from ATCC (ATCC-No: CCL-247). Cells were cultured in Dulbecco’s modified Eagle’s medium (DMEM) supplemented with 10% fetal bovine serum, 2 mM glutamine, 100 units/cm^3 penicillin, and 100 μg/cm^3 streptomycin. Cultures were maintained in a humidified atmosphere with 5% CO2 at 37 °C in an incubator (Heraceus, HeraCell).
(§2) Cell viability was determined using the MTT (3-(4,5-dimethylthiazol-2-yl)-2,5-diphenyltetrazolium bromide) assay. Cells were seeded in 96-well plates at a density of 5 × 10^3 cells/well and treated for 72 h with the examined compounds in the concentration range 1–100 μM (1, 10, 25, 50, and 100 μM). Following treatment, MTT (0.5 mg/cm^3) was added to the medium and cells were further incubated for 2 h at 37 °C. Cells were lysed with DMSO and the absorbance of the formazan solution was measured at 550 nm with a plate reader (Victor, 1420 multilabel counter). […] The experiment was performed in triplicate. Values are expressed as the mean ± SD of at least three independent experiments.

HeLa (cervical cancer) = experiment: MTT cell viability assay, HeLa; format: cell-based; settings: Homo sapiens
Method: as §1, §2

MCF-7 (breast cancer) = experiment: MTT cell viability assay, MCF-7; format: cell-based, human; settings: mean ± SD
Method: All of the newly synthesized compounds 9–24 were evaluated for their effects on cell viability in three human cancer cell lines: HCT-116 (colon cancer), HeLa (cervical cancer), and MCF-7 (breast cancer). Cisplatin was used as reference drug. […] Considering the activity of derivatives 9–12, 15, 17, 18, and 21–24, it can be noticed that phenyl group as R^3 bring an increase of cytotoxicity in comparison with methyl in place of R^3. However, this impact seems to be the most important for compounds with the bulky group in R^1 and generally, it is less for a set of derivatives with methyl group substituted in R^1 (9–12).
as §1, §2

MOLT-4 = experiment: NCI-60 single dose screen, MOLT-4; format: cell-based; settings: Homo sapiens, Leukemia, single concentration 10^−5 M, read-out: IGP (inhibition growth percent) MOLT-4
Method: (§3) Aside from above, compounds 9–14 and 17–24 were also submitted to National Cancer Institute and evaluated for the cytotoxic effects toward 60 cell lines at a single dose of 10 μM (Table 2). […] As it was summarized in Table 2, leukemia RPMI-8226 and NSCLC A549/ATCC were most sensitive to compounds 18, 22, and 24. These derivatives in 10 μM concentration inhibited the growth of approximately 50% cells belonging to the above mention cell lines.
(§4) Cytotoxicity evaluation of compounds 9–14 and 17–24 was performed at the National Cancer Institute according to NCI-60 DTP human tumor cell line screen procedure.

RPMI-8226 = experiment: NCI-60 single dose screen, RPMI-8226; format: cell-based; settings: Homo sapiens, RPMI-8226, Leukemia; single concentration 10^−5 M; read-out: IGP (inhibition growth percent) RPMI-8226
Method: as §3, §4

SR = experiment: NCI-60 single dose screen, SR; format: cell-based; settings: Homo sapiens, Leukemia, single concentration 10^−5 M, read-out: IGP (inhibition growth percent) SR
Method: as §3, §4

A549/ATCC = experiment: NCI-60 single dose screen, A549/ATCC; format: cell-based; settings: Homo sapiens, A549, NSCLC; single concentration 10^−5 M; read-out: IGP (inhibition growth percent) A549/ATCC
Method: as §3, §4

EKVX = experiment: NCI-60 single dose screen, EKVX; format: cell-based; settings: Homo sapiens, NSCLC, single concentration 10^−5 M, read-out: IGP (inhibition growth percent) EKVX
Method: as §3, §4

HOP-92 = experiment: NCI-60 single dose screen, HOP-92; format: cell-based; settings: Homo sapiens, NSCLC, single concentration 10^−5 M, read-out: IGP (inhibition growth percent) HOP-92
Method: as §3, §4

NCI-H522 = experiment: NCI-60 single dose screen, NCI-H522; format: cell-based; settings: Homo sapiens, NSCLC, single concentration 10^−5 M, read-out: IGP (inhibition growth percent) NCI-H522
Method: as §3, §4

HCT-116 = experiment: NCI-60 single dose screen, HCT-116; format: cell-based; settings: Homo sapiens, Colon cancer, single concentration 10^−5 M, read-out: IGP (inhibition growth percent) HCT-116
Method: as §3, §4

UACC-62 = experiment: NCI-60 single dose screen, UACC-62; format: cell-based; settings: Homo sapiens, Melanoma, single concentration 10^−5 M, read-out: IGP (inhibition growth percent) UACC-62
Method: as §3, §4

UO-31 = experiment: NCI-60 single dose screen, UO-31; format: cell-based; settings: Homo sapiens, Renal cancer, single concentration 10^−5 M, read-out: IGP (inhibition growth percent) UO-31
Method: as §3, §4

PC-3 = experiment: NCI-60 single dose screen, PC-3; format: cell-based; settings: Homo sapiens, Prostate cancer, single concentration 10^−5 M, read-out: IGP (inhibition growth percent) PC-3
Method: as §3, §4

[1] = Metabolic stability in human liver microsomes with NADPH; format: in vitro ADME; settings: pooled human liver microsomes, pH 7.4, human liver microsomes 0.5 mg/cm^3, NADPH 1 mM, 10 μM compound, 37 °C, read-out: in vitro metabolic half-life t1/2
Method: Selected derivatives were submitted to metabolic stability study to assess their ability to remain unchanged in the presence of human metabolic enzymes. Human liver microsomes were used as they are a rich source of all common CYP isoenzymes. In vitro incubations were performed in the presence of NADPH as a cofactor and the disappearance of a derivative was followed using LC–MS technique. The in vitro metabolic half-life values are gathered in Fig. 3.
Stock solutions of studied compounds were prepared at concentration of 10 mM in DMSO. […] Incubation mixture contained 10 μM of a studied derivative, 1 mM of NADPH (Sigma-Aldrich) and 0.5 mg/cm^3 of pooled human liver microsomes (HLM, Sigma-Aldrich) in potassium phosphate buffer (0.1 M, pH 7.4). Incubation was carried out in thermostat at 37 °C and started by addition of studied compound. 50 mm^3 samples were taken at starting point and after 5, 15, 30, 45, and 60 min. Enzymatic reaction was terminated by the addition of the equal volume of ice-cold acetonitrile. Incubations were performed in triplicates, the average t1/2 and standard deviation was calculated. Control incubations were performed without NADPH to assess chemical instability. After collection, samples were immediately centrifuged (10 min, 10,000 rpm) and resulted supernatant was directly analyzed or kept in − 80 °C until LC–MS analysis. Natural logarithm of a compound over IS peak area ratio was plotted versus incubation time. Metabolic half-time (t1/2) was calculated from the slope of the linear regression.
LC–MS analysis was performed on an Agilent 1260 system coupled to SingleQuad 6120 mass spectrometer (Agilent Technologies, Santa Clara, CA, USA). Poroshell EC-C18 (2.1 mm × 150 mm, 2.7 μm, Agilent Technologies, Santa Clara, CA, USA) was used in reversed-phase mode with gradient elution starting with 5% of phase A (10 mM ammonium formate in water) and 95% of phase B (10 mM ammonium formate in acetonitrile–water mixture, 95:5 v/v). […] Total analysis time was 15 min at 40 °C, flow rate was 1 cm^3/min and the injection volume was 5 mm^3. The mass spectrometer was equipped with electrospray ion source and operated in positive ionization. Mass analyzer was set individually to each compound to detect [M+H]^+ protonated molecule. MSD parameters of the ESI source were as follows: nebulizer pressure 35 psig (N2), drying gas […] (N2), drying gas temperature 300 °C, capillary voltage 3 kV, fragmentor voltage 150 V.

MCF-7 = experiment: NCI-60 single dose screen, MCF-7; format: cell-based; settings: Homo sapiens, MCF7; Breast cancer; single concentration 10^−5 M; read-out: IGP (inhibition growth percent) MCF-7
Method: as §3, §4

[2] = Table 4, repeats Table 1 values without SD and unit

IC50 (HCT-116 (colon cancer)) [µM]	IC50 (HeLa (cervical cancer); MTT, 72 h, mean ± SD) [µM]	IC50 (HeLa (cervical cancer); [2]) [µM]	IC50 (MCF-7 (breast cancer); Homo sapiens, MCF7, 72 h) [µM]	half-life at 10 μM [1] [min]	Structure (SMILES)	inhibition at 10 µM (MOLT-4) [%]	inhibition at 10 µM (RPMI-8226) [%]	inhibition at 10 µM (SR) [%]	inhibition at 10 µM (A549/ATCC) [%]	inhibition at 10 µM (EKVX) [%]	inhibition at 10 µM (HOP-92) [%]	inhibition at 10 µM (NCI-H522) [%]	inhibition at 10 µM (HCT-116) [%]	inhibition at 10 µM (UACC-62) [%]	inhibition at 10 µM (UO-31) [%]	inhibition at 10 µM (PC-3) [%]	inhibition at 10 µM (MCF-7) [%]	IC50 (MCF-7 (breast cancer); 72 h) [µM]
84 ± 3	72 ± 1	72	175 ± 10	16	Cc1nc(NS(=O)(=O)c2cc(C(=O)Nc3ccccc3)c(Cl)cc2SCc2ccccc2)nc2ccccc12 [Compound 17, 2-Benzylthio-4-chloro-5-phenylcarbamoyl-N-(4-methylquinazolin-2-yl)benzenesulfonamide]	9	22	12	11	18	20	12	5	14	24	3	–	–
46 ± 1	58 ± 2	58	57 ± 2	56.8	Cc1cc(S(=O)(=O)Nc2nc(C)c3ccccc3n2)c(SCc2cc3c(cc2Cl)OCO3)cc1Cl [Compound 11, 4-Chloro-2-(6-chlorobenzo[1,3]dioxol-5-ylmethylthio)-5-methyl-N-(4-methylquinazolin-2-yl)benzenesulfonamide]	20	32	3	34	17	–	19	30	23	15	23	4	–
85 ± 3	120 ± 1	–	155 ± 9	90.8	Cc1cc(S(=O)(=O)Nc2nc(-c3ccccc3)c3ccccc3n2)c(SCC(N)=O)cc1Cl [Compound 14, 2-Carbamoylmethylthio-4-chloro-5-methyl-N-(4-phenylquinazolin-2-yl)benzenesulfonamide]	9	–	17	–	–	–	4	–	–	2	–	–	–
–	–	–	–	–	N.N.[Cl][Pt][Cl] [Cisplatin, reference compound]	–	–	–	–	–	–	–	–	–	–	–	–	3 ± 0.1
140 ± 4	110 ± 7	110	92 ± 1	49.7	NC(=O)CSc1cc(Cl)c(C(=O)Nc2ccc(Cl)cc2)cc1S(=O)(=O)Nc1nc(-c2ccccc2)c2ccccc2n1 [Compound 20, 2-Carbamoylmethylthio-4-chloro-5-(4-chlorophenylcarbamoyl)-N-(4-phenylquinazolin-2-yl)benzenesulfonamide]	5	10	6	–	–	4	11	–	8	3	2	3	–
100 ± 4	117 ± 5	117	105 ± 3	–	Cc1nc(NS(=O)(=O)c2cc(C(=O)Nc3ccc(Cl)cc3)c(Cl)cc2SCC(N)=O)nc2ccccc12 [Compound 19, 2-Carbamoylmethylthio-4-chloro-5-(4-chlorophenylcarbamoyl)-N-(4-methylquinazolin-2-yl)benzenesulfonamide]	3	3	4	–	–	8	8	4	–	7	4	4	–
70 ± 1	75 ± 2	75	97 ± 2	35	Cc1ccc(NC(=O)c2cc(S(=O)(=O)Nc3nc(C)c4ccccc4n3)c(SCc3ccccc3)cc2Cl)cc1 [Compound 23, 2-Benzylthio-4-chloro-5-(4-methylphenylcarbamoyl)-N-(4-methylquinazolin-2-yl)benzenesulfonamide]	5	17	8	6	15	–	–	–	–	21	18	8	–
61 ± 1	75 ± 5	75	100 ± 2	51.9	Cc1cc(S(=O)(=O)Nc2nc(C)c3ccccc3n2)c(SCc2ccccc2)cc1Cl [Compound 9, 2-Benzylthio-4-chloro-5-methyl-N-(4-methylquinazolin-2-yl)benzenesulfonamide]	12	15	6	–	3	3	9	–	29	27	2	2	–
